US11535630B2, “Apelin receptor (APJ) agonists and uses thereof” (Research Triangle Institute, priority 2015, dated 2022)
Like-named read-outs stand apart in the source and are kept apart here.

Experiments:
apelin receptor (APJ) = molecular target: T1, apelin receptor (APJ) (Homo sapiens, UniProt P35414); test: In vitro apelin agonist activity (methods of Giddings et al., Apelin-13 as positive control); format: cell-based
T1 sequence (P35414 1-380): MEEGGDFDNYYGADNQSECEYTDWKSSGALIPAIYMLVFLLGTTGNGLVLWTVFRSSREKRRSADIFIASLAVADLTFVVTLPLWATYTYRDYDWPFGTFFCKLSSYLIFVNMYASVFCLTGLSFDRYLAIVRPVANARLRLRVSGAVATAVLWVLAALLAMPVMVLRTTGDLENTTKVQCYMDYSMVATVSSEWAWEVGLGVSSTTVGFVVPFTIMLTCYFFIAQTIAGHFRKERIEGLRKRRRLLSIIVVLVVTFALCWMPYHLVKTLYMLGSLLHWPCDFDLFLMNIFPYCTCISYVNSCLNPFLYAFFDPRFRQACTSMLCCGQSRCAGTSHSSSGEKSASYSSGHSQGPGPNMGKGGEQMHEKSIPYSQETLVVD
Source text: Characterization of the Apelin Agonist Activity of the Compounds
1:39-47, the contents of which are hereby incorporated by reference in its entirety. Using the methods described in Giddings et al. and Apelin-13 as a positive control.

[1] = Caco-2 cellular uptake / permeability assay (A-to-B, B-to-A); format: in vitro ADME; settings: human, Caco-2, pH 7.4
Experimental: 5.3. Cellular Uptake Assay
Caco-2 cells (clone C2BBe1) were obtained from American Type Culture Collection (Manassas, Va,). Cell monolayers were grown to confluence on collagen-coated, microporous, polycarbonate membranes in 12-well Costar Transwell plates. Details of the plates and their certification are shown below. The permeability assay buffer was Hanks' balanced salt solution (HBSS) containing 10 mM HEPES and 15 mM glucose at a pH of 7.4. The buffer in the receiver chamber also contained 1% bovine serum albumin. The dosing solution concentration was 5 μM for each test article in the assay buffer. Cell monolayers were dosed on the apical side (A-to-B) or basolateral side (B-to-A) and incubated at 37° C. with 5% CO2 in a humidified incubator. Samples were taken from the donor and receiver chambers at 120 minutes. Each determination was performed in duplicate. After the experiment, all assay buffers were removed from the inserts. Cell monolayers were dosed with blank 500 μM lucifer yellow on the A-to-B side and blank HBSS on the B-to-A side and incubated at 37° C. Samples were taken from the B-to-A side at 60 minutes. The flux of lucifer yellow was measured for each monolayer to ensure no damage was inflicted to the cell monolayers during the flux period. All samples were analyzed by LC-MS/MS using electrospray ionization.
Where, dCr/dt is the slope of the cumulative concentration in the receiver compartment versus time in μM s^−1;
Vr is the volume of the receiver compartment in cm^3;
Vd is the volume of the donor compartment in cm^3;
CA is the average of the nominal dosing concentration and the measured 120-minute donor concentration in μM;
CN is the nominal concentration of the dosing solution in μM;
Cr^final is the cumulative receiver concentration in μM at the end of the incubation period;
Cd^final is the concentration of the donor in μM at the end of the incubation period.
Efflux ratio (ER) is defined as Papp (B-to-A)/Papp (A-to-B).

male Sprague-Dawley rats = test: In vivo blood pressure lowering in conscious telemetered rats, oral gavage; parameters: species or system rat; settings: for Diastolic blood pressure, 2-5 h mean change from baseline / MAP, 2-5 h mean change from baseline / Systolic blood pressure, 2-5 h mean change from baseline: rat
Experimental: In Vivo Blood Pressure Lowering Activity of the Compounds
Select compounds were evaluated for their effects upon oral administration on hemodynamic changes, including blood pressure reduction, in conscious, telemetered male Sprague-Dawley rats. Apelin peptides are known to lower blood pressure, e.g., Tatemoto, K., et.al. Regul. Pept. 2001, 99, 87-92.
Animals were approximately 7-9 weeks of age and weighed between 247 g to 263 g just prior to surgery. Dose levels administered were 7.5, 15 or 30 mg/kg, dose volumes were 10 mL/kg, and dose route of administration was oral gavage. Animals were assigned to a crossover experimental treatment schedule as shown below.
Collected data included systolic, diastolic, and mean arterial blood pressure (MAP). Data collection time points were for pre-dose baseline approximately 48 h (prior to treatment 1) or approximately 24 h (prior to treatment 2-4) for 10 sec every 2 min. Data collection post-dose was collected through approximately 24 h (data collected for 10 sec every 2 min) per treatment. Resulting data is presented below as the 2-5 h mean change from baseline in mmHg.

[2] = apelin agonist potency as listed in Table 3 (Cellular Uptake Results), read-out: EC50
[3] = in vitro apelin agonist activity, methods of Giddings et al., Apelin-13 as positive control, read-out: EC50 (nM) Ave

Compound	EC50 (apelin receptor (APJ); [2]) [nM]	EC50 (apelin receptor (APJ); [3]) [nM]	efflux ratio at 120 min, 5 μM [1]	also measured
COc1cccc(OC)c1-c1cc(C(=O)N[C@@H](CCN2CCCC(F)(F)C2)CC(=O)NC2CCC2)nn1C1CCCC1 [compound 348, (3S)-N-cyclobutyl-3-{[1-cyclopentyl-5-(2,6-dimethoxyphenyl)-1H-pyrazol-3-yl]formamido}-5-(3,3-difluoropiperidin-1-yl)pentanamide]	15	15	2.1	–
O=C(N[C@@H](CCN1CCCC(F)(F)C1)Cc1nnn[nH]1)c1cc(-c2ccccc2C(F)(F)F)n(C2CCCC2)n1 [compound 551, 1-cyclopentyl-N-[(2S)-4-(3,3-difluoropiperidin-1-yl)-1-(1H-1,2,3,4-tetrazol-5-yl)butan-2-yl]-5{2-(trifluoromethyl)phenyl]-1H-pyrazole-3-carboxamide]	–	25	–	Diastolic blood pressure, 2-5 h mean change from baseline (male Sprague-Dawley rats; 7.5 mg/kg oral gavage): −4.3 mmHg; MAP, 2-5 h mean change from baseline (male Sprague-Dawley rats; 7.5 mg/kg oral gavage): −4.5 mmHg; Systolic blood pressure, 2-5 h mean change from baseline (male Sprague-Dawley rats; 7.5 mg/kg oral gavage): −6.6 mmHg; Diastolic blood pressure, 2-5 h mean change from baseline (male Sprague-Dawley rats; 15 mg/kg oral gavage): −7.3 mmHg; MAP, 2-5 h mean change from baseline (male Sprague-Dawley rats; 15 mg/kg oral gavage): −8.5 mmHg; Systolic blood pressure, 2-5 h mean change from baseline (male Sprague-Dawley rats; 15 mg/kg oral gavage): −9.6 mmHg; Diastolic blood pressure, 2-5 h mean change from baseline (male Sprague-Dawley rats; 30 mg/kg oral gavage): −8.4 mmHg; MAP, 2-5 h mean change from baseline (male Sprague-Dawley rats; 30 mg/kg oral gavage): −9.8 mmHg; Systolic blood pressure, 2-5 h mean change from baseline (male Sprague-Dawley rats; 30 mg/kg oral gavage): −11.3 mmHg; Effect on blood pressure (in words) (male Sprague-Dawley rats; oral gavage 7.5, 15 or 30 mg/kg, male Sprague-Dawley rats): dose-dependent, mild sustained decrease in blood pressure
COc1cccc(OC)c1-c1cc(C(=O)N[C@@H](CCN2CCC(F)(F)CC2)CC(=O)NC2CCC2)nn1C1CCCC1 [compound 335, (3S)-N-cyclobutyl-3-{[1-cyclopentyl-5-(2,6-dimethoxyphenyl)-1H-pyrazol-3-yl]formamido}-5-(4,4-difluoropiperidin-1-yl)pentanamide]	63	63	1	–
CCc1ccccc1-c1cc(C(=O)N[C@@H](CCN2CCCCC2)CC(=O)NC2CCC2)nn1C1CCCC1 [compound 363, (3S)-N-cyclobutyl-3-{[1-cyclopentyl-5-(2-ethylphenyl)-1H-pyrazol-3-yl]formamido}-5-(piperidin-1-yl)pentanamide]	44	44	3.6	–
COc1cccc(OC)c1-c1cc(C(=O)N[C@@H](CCN2CCCC(F)(F)C2)CC(=O)Nc2nccs2)nn1C1CCCC1 [compound 384, (3S)-3-{[1-cyclopentyl-5-(2,6-dimethoxyphenyl)-1H-pyrazol-3-yl]formamido}-5-(3,3-difluoropiperidin-1-yl)-N-(1,3-thiazol-2-yl)pentanamide]	15	15	1.7	–
CCc1ccccc1-c1cc(C(=O)N[C@@H](CCN2CCCC(F)(F)C2)CC(=O)Nc2nccs2)nn1C1CCCC1 [compound 410, (3S)-3-{[1-cyclopentyl-5-(2-ethylphenyl)-1H-pyrazol-3-yl]formamido}-5-(3,3-difluoropiperidin-1-yl)-N-(1,3-thiazol-2-yl)pentanamide]	7	7	1	–
